Reference: the supplement of paper PMC10627819

Columns and labels:
B. subtilis 168 = experiment: Bliss interaction score (quartile over a dose matrix) (fitness difference); higher = more antagonism (negative = synergy)
How it was run: (§1)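 The Bliss score was calculated by subtracting the expected fitness, the product of single-drug values, from the observed fitness. OD595 at entry into stationary phase, over the plate's robust no-drug mean and capped at 1, served as the fitness readout. Single-drug values were inferred from combination data, and scores are summarised by quartiles across technical, biological and donor/recipient replicates.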

S. pneumoniae D39V [1] = experiment: as above
How it was run: as §1

S. aureus Newman = experiment: as above
How it was run: as §1

S. aureus DSM 20231 = experiment: as above
How it was run: as §1

S. pneumoniae D39V [2] = experiment: fitness (endpoint OD595 vs no drug) (fraction); higher = more growth
How it was run: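 Fitness compares growth at the stationary-phase transition with the robust mean of no-drug control wells, as a ratio of optical densities. The ratio is capped at 1. Wells of 384-well plates held 30 µl, or 55 µl for S. pneumoniae, inoculated at OD595 0.01. Readings at OD595 every 30 min for 14 h at 37 °C were corrected against the first reading.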
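For Bliss interaction score (quartile over a dose matrix) in this document: first quartile when negative (synergy) and third quartile when positive (antagonism).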

CC[C@H]1OC(=O)[C@H](C)[C@@H](O[C@H]2C[C@@](C)(OC)[C@@H](O)[C@H](C)O2)[C@H](C)[C@@H](O[C@@H]2O[C@H](C)C[C@H](N(C)C)[C@H]2O)[C@](C)(OC)C[C@@H](C)C(=O)[C@H](C)[C@@H](O)[C@]1(C)O [Clarithromycin] + C/C(=C\C(=O)OCCCCCCCCC(=O)O)C[C@@H]1OC[C@H](C[C@@H]2O[C@H]2[C@@H](C)[C@H](C)O)[C@@H](O)[C@H]1O [Pseudomonic acid]
Conditions	Bliss interaction score
B. subtilis 168	0.0528
S. aureus DSM 20231	0.0125
S. aureus Newman	0.0379
S. pneumoniae D39V [1]	0.0643

fitness, S. pneumoniae D39V [2], one replicate
Conditions	first compound 0.007812 µg/mL	first compound 0.01562 µg/mL	first compound 0.03125 µg/mL
partner 0.03 µg/mL	0.925	0.852	0.667
partner 0.06 µg/mL	0.841	0.838	0.673
partner 0.12 µg/mL	0.68	0.615	0.412

fitness, S. pneumoniae D39V [2]
Conditions	first compound 0.0625 µg/mL	first compound 0.07 µg/mL	first compound 0.125 µg/mL	first compound 0.14 µg/mL	first compound 0.25 µg/mL	first compound 0.28 µg/mL
partner 0.03 µg/mL	0.683	0.159	0.427	0.0976	0.258	0.0736
partner 0.06 µg/mL	–	0.12	0.399	0.102	0.174	0.0966
partner 0.12 µg/mL	0.431	0.101	0.24	0.0908	0.117	0.0699

CC[C@H]1OC(=O)[C@H](C)[C@@H](O[C@H]2C[C@@](C)(OC)[C@@H](O)[C@H](C)O2)[C@H](C)[C@@H](O[C@@H]2O[C@H](C)C[C@H](N(C)C)[C@H]2O)[C@](C)(OC)C[C@@H](C)C(=O)[C@H](C)[C@@H](O)[C@]1(C)O [Clarithromycin] + CC1=C\[C@@H](O)CC(=O)Cc2nc(co2)C(=O)N2CCC=C2C(=O)O[C@H](C(C)C)[C@H](C)/C=C/C(=O)NC\C=C\1 [Virginiamycin M1]
Conditions	Bliss interaction score
B. subtilis 168	0.0359
S. aureus DSM 20231	0.0856
S. aureus Newman	0.0322
S. pneumoniae D39V [1]	0.0597

fitness, S. pneumoniae D39V [2], one replicate
Conditions	first compound 0.007812 µg/mL	first compound 0.01562 µg/mL	first compound 0.03125 µg/mL	first compound 0.0625 µg/mL	first compound 0.125 µg/mL	first compound 0.25 µg/mL
partner 0.15 µg/mL	–	–	–	0.788	0.645	0.463
partner 0.3 µg/mL	–	–	–	0.734	0.635	0.425
partner 0.5 µg/mL	0.856	0.884	0.758	0.756	0.529	0.361
partner 1 µg/mL	0.852	0.85	0.719	0.608	0.328	0.132
partner 2 µg/mL	0.853	0.808	0.682	–	–	–

fitness, S. pneumoniae D39V [2]
Conditions	first compound 0.0625 µg/mL	first compound 0.07 µg/mL	first compound 0.125 µg/mL	first compound 0.14 µg/mL	first compound 0.25 µg/mL	first compound 0.28 µg/mL
partner 0.5 µg/mL	–	0.119	–	0.0772	–	0.0473
partner 1 µg/mL	–	0.118	–	0.0875	–	0.0656
partner 2 µg/mL	0.647	0.124	0.463	0.105	0.288	0.0464

CC[C@H]1OC(=O)[C@H](C)[C@@H](O[C@H]2C[C@@](C)(OC)[C@@H](O)[C@H](C)O2)[C@H](C)[C@@H](O[C@@H]2O[C@H](C)C[C@H](N(C)C)[C@H]2O)[C@](C)(OC)C[C@@H](C)C(=O)[C@H](C)[C@@H](O)[C@]1(C)O [Clarithromycin] + CC(=O)NC[C@H]1CN(c2ccc(N3CCOCC3)c(F)c2)C(=O)O1 [Linezolid]
Conditions	Bliss interaction score
B. subtilis 168	-0.0553
S. aureus DSM 20231	-0.135
S. aureus Newman	-0.119
S. pneumoniae D39V [1]	-0.0363

fitness, S. pneumoniae D39V [2], one replicate
Conditions	first compound 0.007812 µg/mL	first compound 0.01562 µg/mL	first compound 0.03125 µg/mL
partner 0.2 µg/mL	0.728	0.709	0.581
partner 0.4 µg/mL	0.565	0.609	0.452
partner 0.8 µg/mL	0.277	0.314	0.193

fitness, S. pneumoniae D39V [2]
Conditions	first compound 0.0625 µg/mL	first compound 0.07 µg/mL	first compound 0.125 µg/mL	first compound 0.14 µg/mL	first compound 0.25 µg/mL	first compound 0.28 µg/mL
partner 0.105 µg/mL	0.637	–	0.35	–	0.111	–
partner 0.2 µg/mL	–	0.0674	–	0.0794	–	0.0498
partner 0.21 µg/mL	0.533	–	0.269	–	0.0783	–
partner 0.4 µg/mL	–	0.0735	–	0.0846	–	0.0492
partner 0.42 µg/mL	0.326	–	0.163	–	0.101	–
partner 0.8 µg/mL	–	0.0543	–	0.0384	–	0.0345

CC[C@H]1OC(=O)[C@H](C)[C@@H](O[C@H]2C[C@@](C)(OC)[C@@H](O)[C@H](C)O2)[C@H](C)[C@@H](O[C@@H]2O[C@H](C)C[C@H](N(C)C)[C@H]2O)[C@](C)(OC)C[C@@H](C)C(=O)[C@H](C)[C@@H](O)[C@]1(C)O [Clarithromycin] + CC(C1CCC(C(O1)OC2C(CC(C(C2O)OC3C(C(C(CO3)(C)O)NC)O)N)N)N)NC [Gentamicin]
main component drawn
Conditions	Bliss interaction score
B. subtilis 168	0.0895
S. aureus DSM 20231	0.12
S. aureus Newman	0.108
S. pneumoniae D39V [1]	-0.06

fitness, S. pneumoniae D39V [2], one replicate, main component drawn
Conditions	first compound 0.007812 µg/mL	first compound 0.01562 µg/mL	first compound 0.03125 µg/mL
partner 2 µg/mL	0.876	0.84	0.63
partner 4 µg/mL	0.873	0.878	0.651
partner 8 µg/mL	0.885	0.842	0.645

fitness, S. pneumoniae D39V [2], main component drawn
Conditions	first compound 0.0625 µg/mL	first compound 0.07 µg/mL	first compound 0.125 µg/mL	first compound 0.14 µg/mL	first compound 0.25 µg/mL	first compound 0.28 µg/mL
partner 2 µg/mL	0.45	0.146	0.228	0.0838	0.0804	0.0949
partner 4 µg/mL	0.447	0.144	0.206	0.0957	0.0925	0.0738
partner 8 µg/mL	0.349	0.195	0.169	0.132	0.104	0.0605
